Measurements taken from patent US20240287138A1, “CYCLIC PEPTIDES FOR INHIBITING TNF RECEPTOR 1 ACTIVITY” (Merck Sharp & Dohme LLC, priority 2023, published 2024).
Numbered stars: 1 amine (or outer) side, 2 acyl side, 3 side chain; on linkers, the order of the positions; unused ones are H or OH. Bridge positions count the residues as written; N and C are the ends. Square brackets hold non-standard residues; d marks the D form. Peptide text beside a SMILES is read from it. * marks the point of attachment. Trp(βS-Me,7-OMe) = COc1cccc2c([C@H](C)[C@H](N)C(=O)O)c[nH]c12; Phe(2-F,4-COOH) = N[C@@H](Cc1ccc(C(=O)O)cc1F)C(=O)O; Trp(7-CN) = N#Cc1cccc2c(C[C@H](N)C(=O)O)c[nH]c12; Trp(7-Cl) = N[C@@H](Cc1c[nH]c2c(Cl)cccc12)C(=O)O; Biotin = O=C1N[C@H]2[C@H](CS[C@H]2CCCCC(=O)*)N1; Phe(3-COOH) = N[C@@H](Cc1cccc(C(=O)O)c1)C(=O)O; Phe(4-CONH2) = NC(=O)c1ccc(C[C@H](N)C(=O)O)cc1; Phe(4-COOH) = N[C@@H](Cc1ccc(C(=O)O)cc1)C(=O)O; Trp(7-aza) = N[C@@H](Cc1c[nH]c2ncccc12)C(=O)O; Tyr(3-OMe) = COc1cc(C[C@H](N)C(=O)O)ccc1O; Pip(5R-OH) = O=C(O)[C@@H]1CC[C@@H](O)CN1; X1 = O=C([C@@H]1CC[C@H](N[*:1])C1)[*:2]; X42 = C[C@@H](CO)N(CC(=O)[*:2])[*:1]; Pip(4-aza) = O=C(O)[C@@H]1CNCCN1; 4Pal = N[C@@H](Cc1ccncc1)C(=O)O; NMeE = CN[C@@H](CCC(=O)O)C(=O)O; αMeS = C[C@](N)(CO)C(=O)O; Nle = CCCC[C@H](N)C(=O)O; AEA = NCCOCC(=O)O; Sar = CNCC(=O)O

Each compound was assayed against T1, TNFα-induced NF-κB signal transduction pathway (TNFR1 signaling) in THP-1 cells (Homo sapiens, UniProt P19438) (assay: THP-1 Lucia NF-κB reporter cell assay, inhibition of TNFα-induced NF-κB signaling). Details: THP-1 NF-κB Lucia reporter cells, 10 ng/mL TNFα, 16-18 h, secreted luciferase; read-out: THP-1 IC50.
T1 sequence (P19438 30-455): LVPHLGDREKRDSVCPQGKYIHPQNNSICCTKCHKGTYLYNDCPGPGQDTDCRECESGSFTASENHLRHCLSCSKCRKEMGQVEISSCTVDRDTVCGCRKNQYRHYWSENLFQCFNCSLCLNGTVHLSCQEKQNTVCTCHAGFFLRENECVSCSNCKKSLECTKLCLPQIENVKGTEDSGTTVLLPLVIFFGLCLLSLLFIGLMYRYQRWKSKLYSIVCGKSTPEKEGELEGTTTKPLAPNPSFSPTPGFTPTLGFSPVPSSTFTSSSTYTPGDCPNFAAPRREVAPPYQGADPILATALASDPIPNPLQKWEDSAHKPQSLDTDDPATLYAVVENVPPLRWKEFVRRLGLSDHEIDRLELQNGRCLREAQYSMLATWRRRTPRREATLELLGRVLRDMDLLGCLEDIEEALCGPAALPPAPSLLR
Type: cell-based
Procedure: C. Procedure for THP-1 Lucia NF-κB cells
The inhibition of TNFα-induced NF-κB signal transduction pathways was evaluated in THP-1 cells. THP-1 cells harboring NF-κB-inducible Lucia™ reporter gene (InvivoGen, cat. #thp1-nfkb) designed for monitoring NF-κB signal transduction pathway was employed to assess the inhibitory effect macrocyclic peptides on TNFR1 signaling. The cells were cultured in media containing RPMI 1640, 2 mM L-glutamine, 25 mM HEPES, 10% heat-inactivated fetal bovine serum with appropriate selection antibiotics. Assays were performed in media that was devoid of selection antibiotics. For profiling, 125 nL of peptides in DMSO (10 mM) were dispensed into Falcon® 384-well Optilux white/clear flat bottom TC-treated microtest microplate (Corning, cat. #353963) using Echo® 555. […] A suspension of 1 million cells/mL was dispensed at 20 μL/well in a 384-well plate to a density of 20,000 cells/well and pre-incubated with peptides at 37° C. for 1 h. Subsequently, 5 μL of TNF containing media (recombinant human TNFα; R&D Systems USA, cat. #210-TA-005/CF) or TNF-free media (for controls) was added to the wells. The final concentration of TNFα in the assay in 10 ng/mL. After o.n. incubation at 37° C. (16-18 h), 5 μL of supernatant was aspirated and transferred to a 384-well microplate (PerkinElmer, cat. #6007680) for measurement of secreted luciferase activity with 25 μL of QUANTI-Luc™ luminescence assay reagent (InvivoGen, cat. #rep-qlc1) in each well. The luminescence was measured in EnVision® Multimode Plate Reader (PerkinElmer). Dose response curves were analyzed using a 4-parameter logistic model to calculate IC50 values, reported in Table 2, using TIBCO® Spotfire® software employing appropriate Minimum and Maximum controls.

Question: `CN1CC(=O)N[C@@H](CC(N)=O)C(=O)N[C@@H](Cc2ccc(O)cc2)C(=O)N[C@@H](Cc2c[nH]c3ccccc23)C(=O)N[C@@H](CO)C(=O)N[C@@H](Cc2ccc(O)cc2)C(=O)N[C@@H](Cc2ccc(O)cc2)C(=O)N(C)CC(=O)N[C@@H](Cc2c[nH]c3ccccc23)C(=O)N[C@H](C(=O)NCC(=O)NCCOCC(=O)N[C@@H](CCCCNC(=O)CCCC[C@@H]2SC[C@@H]3NC(=O)N[C@@H]32)C(N)=O)CSCC(=O)N[C@@H](Cc2ccccc2)C(=O)N[C@@H](Cc2ccc(O)cc2)C(=O)N[C@@H](CO)C(=O)N[C@@H](Cc2c[nH]c3ccccc23)C1=O` [SEQ ID NO. 1] ({CH2CO}-FYSW[Sar]NYWSYY[Sar]WCG[AEA]K(Biotin)-NH2; thioether N-14) was tested. Which IC50 did it give?
Answer: 227 nM

Question: Which IC50 does the source give for `CCCC[C@@H]1NC(=O)[C@@H]2CC[C@@H](C2)NC(=O)[C@H]([C@@H](C)c2c[nH]c3c(OC)cccc23)NC(=O)CN(C)C(=O)[C@H](Cc2ccc(O)cc2)NC(=O)[C@H](Cc2ccc(C(=O)O)cc2F)NC(=O)[C@](C)(CO)NC(=O)[C@H](Cc2c[nH]c3c(Cl)cccc23)NC(=O)[C@H](Cc2ccncc2)NC(=O)[C@H](CC(N)=O)NC(=O)[C@H](CCC(=O)O)N(C)C(=O)[C@H](Cc2c[nH]c3ccccc23)NC(=O)[C@@H]2CNCCN2C(=O)[C@H](Cc2ccncc2)NC1=O` [SEQ ID NO. 7] (cyclo([4Pal][Trp(7-Cl)][αMeS][Phe(2-F,4-COOH)]Y[Sar][Trp(βS-Me,7-OMe)][X1][Nle][4Pal][Pip(4-aza)]W[NMeE]N)) here?
Answer: 1.6 nM

Question: How did the IC50 turn out when `CCCC[C@@H]1NC(=O)[C@@H]2CC[C@@H](C2)NC(=O)[C@H]([C@@H](C)c2c[nH]c3c(OC)cccc23)NC(=O)CN(C)C(=O)[C@H](Cc2ccc(C(N)=O)cc2)NC(=O)[C@H](Cc2ccc(C(N)=O)cc2)NC(=O)[C@](C)(CO)NC(=O)[C@H](Cc2c[nH]c3c(C#N)cccc23)NC(=O)[C@H](Cc2ccc(C(=O)O)cc2)NC(=O)[C@H](CC(N)=O)NC(=O)CN([C@@H](C)CO)C(=O)[C@H](Cc2c[nH]c3ncccc23)NC(=O)[C@@H]2CC[C@@H](O)CN2C(=O)[C@H](Cc2ccncc2)NC1=O` [SEQ ID NO. 23] (cyclo([4Pal][Pip(5R-OH)][Trp(7-aza)][X42]N[Phe(4-COOH)][Trp(7-CN)][αMeS][Phe(4-CONH2)][Phe(4-CONH2)][Sar][Trp(βS-Me,7-OMe)][X1][Nle])) was run?
Answer: 0.8 nM

Question: `CCCC[C@@H]1NC(=O)[C@@H]2CC[C@@H](C2)NC(=O)[C@H]([C@@H](C)c2c[nH]c3c(OC)cccc23)NC(=O)CN(C)C(=O)[C@H](Cc2ccc(O)c(OC)c2)NC(=O)[C@H](Cc2ccc(C(=O)O)cc2)NC(=O)[C@](C)(CO)NC(=O)[C@H](Cc2c[nH]c3c(Cl)cccc23)NC(=O)[C@H](Cc2ccncc2)NC(=O)[C@H](CC(N)=O)NC(=O)[C@H](CCC(=O)O)N(C)C(=O)[C@H](Cc2c[nH]c3ccccc23)NC(=O)[C@@H]2CNCCN2C(=O)[C@H](Cc2ccncc2)NC1=O` [SEQ ID NO. 24] (cyclo([4Pal][Trp(7-Cl)][αMeS][Phe(4-COOH)][Tyr(3-OMe)][Sar][Trp(βS-Me,7-OMe)][X1][Nle][4Pal][Pip(4-aza)]W[NMeE]N)) was tested. Which IC50 did it give?
Answer: 0.7 nM

Question: How did the IC50 turn out when `CCCC[C@@H]1NC(=O)[C@@H]2CC[C@@H](C2)NC(=O)[C@H]([C@@H](C)c2c[nH]c3c(OC)cccc23)NC(=O)CN(C)C(=O)[C@H](Cc2ccc(O)cc2)NC(=O)[C@H](Cc2cccc(C(=O)O)c2)NC(=O)[C@](C)(CO)NC(=O)[C@H](Cc2c[nH]c3c(Cl)cccc23)NC(=O)[C@H](Cc2ccncc2)NC(=O)[C@H](CC(N)=O)NC(=O)[C@H](CCC(=O)O)N(C)C(=O)[C@H](Cc2c[nH]c3ccccc23)NC(=O)[C@@H]2CNCCN2C(=O)[C@H](Cc2ccncc2)NC1=O` [SEQ ID NO. 28] (cyclo([4Pal][Trp(7-Cl)][αMeS][Phe(3-COOH)]Y[Sar][Trp(βS-Me,7-OMe)][X1][Nle][4Pal][Pip(4-aza)]W[NMeE]N)) was run?
Answer: 1.6 nM
